Values of other authors as cited in US10143689B2, “SN-38 loaded iron crosslinked micelle and methods thereof” (Intezyne Technologies, Inc., priority 2017, dated 2018).

Columns and labels:
various cancer cells = conditions: in vitro

- solubility in aqueous solutions: exceedingly insoluble
SMILES: CCc1c2c(nc3ccc(O)cc13)-c1cc3c(c(=O)n1C2)COC(=O)[C@]3(O)CC [SN-38, 7-ethyl-10-hydroxy-CPT]
- cytotoxic activity, potency relative to CPT-11 (various cancer cells): up to 1,000 fold
